Assay type in all cases: physicochemical
Series [1] in a line: UV/Vis absorbance at 400 nm and Yellowness Index of the ring-open isomer. To be noted: for Abs @ 400 nm, RO (Absorption of ring-open isomer at 400 nm): 2×10^−5 M solution, 1 cm pathlength cuvette. In a few lines: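 Compound measured as a 2×10^−5 M solution in a 1 cm cuvette after photofading with visible light until visible absorption stabilized. Absorbance at 400 nm and Yellowness Index refer to this ring-open isomer.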

Series [2] is described as follows: Photostability: xenon arc weathering of chromophore solutions, LCMS analysis. To be noted: for Ketone (%) / Minus-2HF (%) / Minus-HF (%) / Sulfone (%) / Chromophore Remaining (%): xenon arc, 82° C. bp; for Ketone (%) / Minus-2HF (%) / Minus-HF (%) / Sulfone (%): linearly interpolated to 0.5 MJ/m2 @ 340 nm; for Chromophore Remaining (%): linearly interpolated to 0.5 MJ/m2 @ 340 nm of exposure energy; for Photostability (in words): weathering experiments. An outline of the steps: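 Chromophores were dissolved at 1 to 10 wt % in Rhodiasolv IRIS at 90° C, then sealed under glovebox conditions in glass cells laminated with 400 nm UV-cutoff PVB. The cells were weathered continuously in a xenon arc chamber with no dark or spray cycles. Solutions were then diluted in acetonitrile and analysed by reverse-phase LC-MS.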

The nature of series [3]: Oxidation potential of ring-closed and ring-open isomers. Conditions: no unit printed in table (V relative to Ag/AgCl).
Setting [4] is: 10 wt %, interpolated to 0.5 MJ/m^2 of energy exposure at 340 nm.
[5] abbreviates: 3 wt %, interpolated to 0.5 MJ/m^2 of energy exposure at 340 nm.
[6] abbreviates: 1 wt %, interpolated to 0.5 MJ/m^2 of energy exposure at 340 nm.

For `CCOC(=O)CCCOc1cc2oc(-c3ccc(C(C)(C)C)cc3)c(C3=C(c4cc(-c5cc(C(C)(C)C)cs5)sc4-c4cc(C(C)(C)C)cs4)C(F)(F)C(F)(F)C3(F)F)c2cc1OCCCC(=O)OCC` [Chromophore S386, diethyl 4,4′-((2-(4-(tert-butyl)phenyl)-3-(2-(4,4″-di-tert-butyl-[2,2′:5′,2″-terthiophen]-3′-yl)-3,3,4,4,5,5-hexafluorocyclopent-1-en-1-yl)benzofuran-5,6-diyl)bis(oxy))dibutanoate], in series [1], the “YI (Yellowness Index)” value is reported as 4.05 and the “Abs @ 400 nm, RO (Absorption of ring-open isomer at 400 nm)” value (shortened to “Abs @ 400 nm, RO”) worked out at 0.113. In addition, in series [2], the “Formation of the Minus-HF degradation product (in words)” value is reported as “prevents the Minus-HF product” and the “Photostability (in words)” value is listed as “high photostability”. In addition, in series [2] (10 wt % in Rhodiasolv IRIS), the “Ketone (%)” value is listed as 0.0%, the “Minus-2HF (%)” value stood at 0.0%, the “Minus-HF (%)” value came to 0.0% and the “Sulfone (%)” value turned out to be 0.0%. Moreover, in series [2] (10 wt % in Rhodiasolv IRIS), the “Chromophore Remaining (%)” value is on record as 98.6%. Besides, in series [2] (setting [4]), the “Ratio of chromophore remaining relative to S340” value is given as 1.08. Also, in series [3], the “RC [O] (oxidation potential of ring-closed isomer)” value (“RC [O]” below) worked out at 0.99 and the “RO [O] (oxidation potential of ring-open isomer)” value (from here on “RO [O]”) is recorded as 1.4.

For the molecule `CCOC(=O)CCCOc1cc2oc(-c3ccc(C(C)(C)C)cc3)c(C3=C(c4cc(-c5cc6c(s5)C(C)(C)CCC6(C)C)sc4-c4cc5c(s4)C(C)(C)CCC5(C)C)C(F)(F)C(F)(F)C3(F)F)c2cc1OCCCC(=O)OCC` [Chromophore S387, ethyl 4-[(3-{2-[2,5-bis(4,4,7,7-tetramethyl-4,5,6,7-tetrahydro-1-benzothiophen-2-yl)thiophen-3-yl]-3,3,4,4,5,5-hexafluorocyclopent-1-en-1-yl}-2-(4-tert-butylphenyl)-6-(4-ethoxy-4-oxobutoxy)-1-benzofuran-5-yl)oxy]butanoate], in series [1], the “YI (Yellowness Index)” value was found to be 8.15 and the “Abs @ 400 nm, RO” value is 0.146. Also, in series [2], the “Formation of the Minus-HF degradation product (in words)” value is given as “prevents the Minus-HF product” and the “Photostability (in words)” value is on record as “high photostability”. Moreover, in series [2] (10 wt % in Rhodiasolv IRIS), the “Ketone (%)” value worked out at 0.0%, the “Minus-2HF (%)” value is 0.0%, the “Minus-HF (%)” value was determined as 0.0% and the “Sulfone (%)” value turned out to be 0.0%. Also, the “Chromophore Remaining (%)” value in series [2] (10 wt % in Rhodiasolv IRIS) amounted to 100.0%. Also, the “Ratio of chromophore remaining relative to S340” value in series [2] (setting [4]) is 1.10. In series [3], the “RC [O]” value was determined as 0.92 and the “RO [O]” value amounted to 1.29.

In the case of `COCCCOc1cc2oc(-c3ccc(C(C)(C)C)cc3)c(C3=C(c4cc(-c5cc6c(s5)C(C)(C)CCC6(C)C)sc4-c4cc5c(s4)C(C)(C)CCC5(C)C)C(F)(F)C(F)(F)C3(F)F)c2cc1OCCCOC` [Chromophore S388, 3-(2-(2,5-bis(4,4,7,7-tetramethyl-4,5,6,7-tetrahydrobenzo[b]thiophen-2-yl)thiophen-3-yl)-3,3,4,4,5,5-hexafluorocyclopent-1-en-1-yl)-2-(4-(tert-butyl)phenyl)-5,6-bis(3-methoxypropoxy)benzofuran], in series [1], the “YI (Yellowness Index)” value came out at 6.3 and the “Abs @ 400 nm, RO” value worked out at 0.132. In series [2], the “Formation of the Minus-HF degradation product (in words)” value was “prevents the Minus-HF product” and the “Photostability (in words)” value is recorded as “high photostability”. In addition, in series [2] (10 wt % in Rhodiasolv IRIS), the “Ketone (%)” value is listed as 0.2%, the “Minus-2HF (%)” value was found to be 0.0%, the “Minus-HF (%)” value came out at 0.0% and the “Sulfone (%)” value is reported as 0.4%. Besides, the “Chromophore Remaining (%)” value in series [2] (10 wt % in Rhodiasolv IRIS) is given as 97.7%. In addition, the “Ratio of chromophore remaining relative to S340” value in series [2] (setting [4]) amounted to 1.07. In addition, in series [3], the “RC [O]” value turned out to be 0.89 and the “RO [O]” value is listed as 1.28.

For the molecule `CC(C)(C)c1ccc(-c2oc3cc(OCCN4CCOC4=O)c(OCCN4CCOC4=O)cc3c2C2=C(c3cc(-c4cc5c(s4)C(C)(C)CCC5(C)C)sc3-c3cc4c(s3)C(C)(C)CCC4(C)C)C(F)(F)C(F)(F)C2(F)F)cc1` [Chromophore S390, 3,3′-(((3-(2-(2,5-bis(4,4,7,7-tetramethyl-4,5,6,7-tetrahydrobenzo[b]thiophen-2-yl)thiophen-3-yl)-3,3,4,4,5,5-hexafluorocyclopent-1-en-1-yl)-2-(4-(tert-butyl)phenyl)benzofuran-5,6-diyl)bis(oxy))bis(ethane-2,1-diyl))bis(oxazolidin-2-one)], in series [1], the “YI (Yellowness Index)” value is 6.48 and the “Abs @ 400 nm, RO” value is 0.133. In series [2] (10 wt % in Rhodiasolv IRIS), the “Ketone (%)” value is on record as 0.0%, the “Minus-2HF (%)” value was 0.0%, the “Minus-HF (%)” value amounted to 0.0% and the “Sulfone (%)” value was determined as 0.0%. Moreover, the “Chromophore Remaining (%)” value in series [2] (10 wt % in Rhodiasolv IRIS) was 98.8%. Further, in series [2] (setting [4]), the “Ratio of chromophore remaining relative to S340” value is 1.08. The “Photostability (in words)” value in series [2] is given as “high photostability”. Further, in series [3], the “RC [O]” value was found to be 0.93 and the “RO [O]” value was found to be 1.29.

For `CC(=O)Oc1cc2oc(-c3ccc(C(C)(C)C)cc3)c(C3=C(c4cc(-c5cc(C(C)(C)C)cs5)sc4-c4cc(C(C)(C)C)cs4)C(F)(F)C(F)(F)C3(F)F)c2cc1OC(C)=O` [Chromophore S396, 2-(4-(tert-butyl)phenyl)-3-(2-(4,4″-di-tert-butyl-[2,2′:5′,2″-terthiophen]-3′-yl)-3,3,4,4,5,5-hexafluorocyclopent-1-en-1-yl)benzofuran-5,6-diyl diacetate], in series [1], the “YI (Yellowness Index)” value stood at 2.78 and the “Abs @ 400 nm, RO” value worked out at 0.08. Moreover, in series [2] (3 wt % in Rhodiasolv IRIS), the “Ketone (%)” value was found to be 1.0%, the “Minus-2HF (%)” value came out at 0.0%, the “Minus-HF (%)” value is 0.0% and the “Sulfone (%)” value came to 0.0%. Also, in series [2] (3 wt % in Rhodiasolv IRIS), the “Chromophore Remaining (%)” value was 97.9%. The “Ratio of chromophore remaining relative to S340” value in series [2] (setting [5]) is 1.07. Further, the “Photostability (in words)” value in series [2] is listed as “high photostability”. Also, in series [3], the “RC [O]” value amounted to 1.18 and the “RO [O]” value was found to be 1.48.

For the molecule `COc1ccc2oc(-c3ccc(C(C)(C)C)cc3)c(C3=C(c4cc(-c5cc6c(s5)C(C)(C)CCC6(C)C)sc4-c4cc5c(s4)C(C)(C)CCC5(C)C)C(F)(F)C(F)(F)C3(F)F)c2c1` [Chromophore S400], in series [1], the “YI (Yellowness Index)” value amounted to 6.67 and the “Abs @ 400 nm, RO” value is recorded as 0.125. Further, in series [2] (3 wt % in Rhodiasolv IRIS), the “Ketone (%)” value amounted to 0.8%, the “Minus-2HF (%)” value is listed as 1.4%, the “Minus-HF (%)” value was determined as 0.0% and the “Sulfone (%)” value was determined as 0.0%. Also, in series [2] (3 wt % in Rhodiasolv IRIS), the “Chromophore Remaining (%)” value was found to be 96.7%. Further, the “Ratio of chromophore remaining relative to S340” value in series [2] (setting [5]) is on record as 1.06. Also, the “Photostability (in words)” value in series [2] is on record as “high photostability”. Also, in series [3], the “RC [O]” value worked out at 1.01 and the “RO [O]” value is on record as 1.29.

Consider `COc1cc2oc(-c3ccc(C(C)(C)C)cc3)c(C3=C(c4cc(-c5cc6c(s5)C(C)(C)CCCC6(C)C)sc4-c4cc5c(s4)C(C)(C)CCCC5(C)C)C(F)(F)C(F)(F)C3(F)F)c2cc1OC` [Chromophore S405], for which, in series [1], the “YI (Yellowness Index)” value came to 7.26 and the “Abs @ 400 nm, RO” value stood at 0.143. In addition, in series [2] (1 wt % in Rhodiasolv IRIS), the “Ketone (%)” value is on record as 2.9%, the “Minus-2HF (%)” value was found to be 0.0%, the “Minus-HF (%)” value came out at 0.0% and the “Sulfone (%)” value worked out at 0.0%. Further, in series [2] (1 wt % in Rhodiasolv IRIS), the “Chromophore Remaining (%)” value is 97.1%. Besides, in series [2] (setting [6]), the “Ratio of chromophore remaining relative to S340” value was 1.07 and the “Sum of degradation product percentages relative to the sum of degradation product percentages for S340” value was found to be 0.33. The “Photostability (in words)” value in series [2] is recorded as “high photostability”. In series [3], the “RC [O]” value came out at 0.91 and the “RO [O]” value is given as 1.28.

These data come from patent publication US20220220100A1 (SOLUTIA CANADA INC., priority 2019, published 2022).
